Data set [1] in a line: Dissolution of solid L-glucose forms in water with consumer-like stirring. Particulars: for Time of stirring until sample fully dissolved: 53 g in 240 mL doubly distilled water. It is filed as physicochemical. Here is the method:
Each sample comprises approximately an equivalent amount of L-glucose on a weight basis. Carefully, to avoid agitation and mixing, doubly distilled water (240 mL) is added to each beaker. In one example, the solution is stirred immediately after addition of water. […] The stiffing was conducted in a manner duplicating the way a consumer is expected to stir a sample prior to use.

Data set [2] has as its system colon. The data set is described as follows: Comparative Example 1: multicenter, double-blind, dose-range-finding study of L-glucose as colon-cleansing agent before colonoscopy. It is filed as in vivo, human. Particulars: single doses 12 g, 16 g, 20 g, 24 g; scale of Hsu et al. Here is the method: A multicenter, double-blind, dose-range-finding study to evaluate the effectiveness and safety of L-glucose as a colon-cleansing agent before colonoscopy was conducted. Doses used in this study were 12 g, 16 g, 20 g, and 24 g. The assessment of the preparations was based on the scale used in Hsu et al., “Meta-analysis and cost comparison of polyethylene glycol lavage versus sodium phosphate for colonoscopy preparation,” Gastrointestinal Endoscopy 48(3):276-282, 1998, wherein small bits of fecal material in the colon were allowed in an “Excellent” score.

Data set [3] deals with colon. Particulars: 24-g single dose; Raymer scale; cited from earlier work.
For data set [4] the following is noted: cited from earlier work.
For data set [5] the following is noted: cited from earlier work. The source holds these as a separate data set.
The subject of data set [6] is colon. Put plainly: Comparative Example 2: randomized, single-blind study of L-glucose as bowel preparation before colonoscopy (GPA scale). It is filed as in vivo, human. Here is the method: (§1) Global Preparation Assessment
(§2) Excellent=clean colon or small volume of clear liquid
(§3) Good=moderate to large volume of clear to semiclear liquid
(§4) Fair=some semisolid stool suctioned or washed away
(§5) Poor=semisolid or solid stool unable to be suctioned or washed away
A randomized, single-blind study designed to determine the clinical effectiveness of L-glucose as a bowel preparation before colonoscopy was performed. Three dose regimens were evaluated: 24 g in the evening only, 30 g in the evening only, and 24 g in the evening followed by 12 g in the morning (36 g total). Here, Applicant's GPA scale described herein was used to evaluate the preparations. […] Clinical efficacy (defined as a combination of “excellent” and “good” assessments) for the split-dose schedule was 19/27 (70%), as compared to 7/31 (23%) in the single-dose schedule (p<0.001).
As noted above in the description of Applicant's GPA scale, the criteria for determining whether a preparation was deemed “excellent” or “good” was respectively defined as “clean colon or small volume of clear liquid” or “moderate to large volume of clear to semi-clear liquid.” These criteria are more stringent than the rating system used by Raymer et al. discussed supra since Raymer's “excellent” and “good” ratings were respectively defined as “no more than small bits of adherent fecal fluid” and “small amounts of feces or fluid not interfering with the examination.” Thus, Raymer's “excellent” rating would likely not qualify as even a “good” rating in Applicant's GPA scale.

In data set [7] the test system is colon. Put plainly: Example 3: open-label, 2-site dose-escalating split-dose study of L-glucose before colonoscopy (GPA and RSS). The class given is in vivo, human.
Excerpt: Applicants have relied upon a combination of a categorical, 4-point scale and a numerical, segmental scoring system to assess bowel cleansing quality (Balaban et al. “Low volume bowel preparation for colonoscopy: randomized, endoscopist-blinded trial of liquid sodium phosphate versus tablet sodium phosphate,” Am J Gastroenterol 98:827-32, 2003). The basic 4-point scale, known as the Global Preparation Assessment (GPA), is essentially the same as the original scale used in the first randomized controlled trial of PHOSPHO-SODA™ as a bowel cleansing agent published in 1990 by Vanner, et al. (“A randomized prospective trial comparing oral sodium phosphate with standard polyethylene glycol-based lavage solution (Golytely) in the preparation of patients for colonoscopy,” Am J Gastroenterol 85:422-7, 1990). The numerical scoring system, known as the Residual Stool Score (RSS), is a continuously variable, averaged segmental scoring instrument that assesses both the amount and consistency of residual stool before suctioning (a measure of the cathartic activity of the bowel cleansing regimen) as well as the percent of the bowel wall seen after washing and cleansing (a measure of the ultimate endpoint for bowel preparation success). The two scales are shown below.
as §1, §2, §3, §4, §5
This open-label, 2-site study employed a dose-escalating design using 3 split doses of L-glucose (24 g/24 g, 36 g/36 g, and 48 g/48 g). The doses were administered the night before and the morning of a scheduled colonoscopy. The study was conducted in Phase I facilities to control for administration of L-glucose and adherence to the dietary and hydration regimen.
Three dose cohorts of 24 subjects were evenly divided between males and females for each cohort. Subjects who were scheduled to undergo an elective colonoscopy, who met the study entrance criteria, and who gave their consent to participate in the study were enrolled. […] Each subject observed a strict diet and hydration regimen as part of the study medication administration.
The site pharmacist prepared the L-glucose preparation based on the study medication preparation manual provided. Each subject, regardless of dose cohort, received the dose in 8 ounces of water, which was to be consumed within a 10-minute period. Dose cohorts proceeded in a dose-escalating fashion starting with the lowest dose (24 g/24 g) and escalated according to a dose escalation decision tree.
The physician performing the colonoscopy utilized Applicant's GPA scale to evaluate the quality of bowel preparation as before suctioning and washing.
The Residual Stool Score (RSS) described above was also used to assess bowel cleansing in each of the 5 segments of the bowel (rectum, descending colon, transverse colon, ascending colon, and cecum). As noted, assessments included the amount of stool present, the consistency of the stool, and the estimated percentage of the bowel wall visualized in each segment.
For reasons of inadequate bowel preparation, sections of the bowel that were not directly examined during colonoscopy were rated as “poor” on all three measures listed previously.
A total of 24 subjects were enrolled into each of the three dose cohorts. All 72 subjects were included in the intent-to-treat (ITT) and safety populations.

For data set [8], the system named is colon. The data set is described as follows: Open-label, historically controlled, single-dose study of L-glucose as colon-cleansing agent before colonoscopy (Raymer et al.). It is filed as in vivo, human. Particulars: 24-g single dose; equivalent of the 80% success rating. How it is done: For example, an open-label, historically controlled, single-dose study of a 24-g dose of L-glucose was conducted to determine the safety and effectiveness of L-glucose as a colon-cleansing agent before colonoscopy (Raymer et al., “An open-label trial of L-glucose as a colon-cleansing agent before colonoscopy,” Gastrointest Endosc 58(1):30-5, 2003).

[9] abbreviates: 48 g/48 g dose compared with lower split doses.

Several values for one entry are separate records, joined by “and”; a condition that tells them apart may be missing. Equal entries are not always repeated.

For `O.O=C[C@@H](O)[C@H](O)[C@@H](O)[C@@H](O)CO` [L-glucose monohydrate], the “Observations: clusters or clumping of solid” value in data set [1] (5 min. delay) and in data set [1] (No delay) was “Several clusters of solid at 1 min. Final solution” throughout. For the same compound, the “Time of stirring until sample fully dissolved” value in data set [1] (5 min. delay before stirring, listed as L- glucose monohydrate^1, monohydrate) is listed as “Sample fully dissolved after 2.5 min. of stirring”; in data set [1] (5 min. delay before stirring, listed as L- glucose monohydrate^2, monohydrate) it was “Fully dissolved after 1 min. of stirring. Final”; in data set [1] (No delay (stirred immediately), listed as L- glucose monohydrate^1, monohydrate), “Sample fully dissolved after 2.5 min. of stirring”; in data set [1] (No delay (stirred immediately), listed as L- glucose monohydrate^2, monohydrate), “Fully dissolved after 2 min. of stirring. Final”. Besides, the “Observations: appearance of final solution” value in data set [1] (5 min. delay, listed as L- glucose monohydrate^2, monohydrate) is “solution was clear, colorless and homogeneous”; in data set [1] (No delay, listed as L- glucose monohydrate^2, monohydrate), “solution was clear, colorless and homogeneous”.
Regarding `O=C[C@@H](O)[C@H](O)[C@@H](O)[C@@H](O)CO` [L-glucose], the “Acceptability as a colonic cleanser” value in data set [2] was “not acceptable”. The “Subjects with colonoscopy preparation grade of excellent or good” value in data set [3] is 80%. In addition, in data set [4] (in vivo), the “Effect of food restriction on the metabolism of L-glucose” value is “no significant effect”. Moreover, the “Major route of L-glucose elimination” value in data set [4] (mice, rats, dogs, rabbits, and monkeys) is “urinary excretion”. Moreover, in data set [5], the “Absorption from the human intestine” value is “moderately absorbed”. In addition, in data set [5] (human), the “Glucose or insulin response after administration” value is “No significant glucose or insulin response”; the “Lower gastrointestinal symptoms (cramping, gas/flatus), mild” value was “occurred in a majority of subjects”; the “Metabolism by colonic bacteria (breath hydrogen, comparable with in vitro studies)” value is “colonic bacteria do not metabolize”; the “Mild upper gastrointestinal symptoms (vomiting, nausea, belching/rifting, bloating)” value is “occurred in a minority of subjects”. Also, the “Outcome of the evening-only dose arms” value in data set [6] (24 g and 30 g evening only) is reported as “suspended for lack of effectiveness”. For the same compound, in data set [6] (in vivo), the “Changes in laboratory test results” value is “no clinically significant changes”, the “Commonly reported adverse events” value is “generally absent or mild” and the “Overall tolerance to the bowel preparation” value is reported as “good or very good”. Also, in data set [7] (24 g/24 g cohort), the “Subjects with GPA rated Excellent (clean colon or small volume of clear liquid)” value (from here on “Subjects with GPA rated Excellent”) is 12 (50.0%) subjects (%) and 12 (50.0) subjects (%); the “Subjects with GPA rated Fair (some semisolid stool suctioned or washed away)” value (shortened to “Subjects with GPA rated Fair”) is on record as 5 (20.8) subjects (%); the “Subjects with GPA rated Good (moderate to large volume of clear to semiclear liquid)” value (“Subjects with GPA rated Good” for short) is 7 (29.2) subjects (%); the “Subjects with GPA rated Poor (semisolid or solid stool unable to be suctioned or washed away)” value is 0 (0.0) subjects (%). Also, in data set [7] (36 g/36 g cohort), the “Subjects with GPA rated Excellent” value was 14 (58.3%) subjects (%) and 14 (58.3) subjects (%); the “Subjects with GPA rated Fair” value is given as 2 (8.3) subjects (%); the “Subjects with GPA rated Good” value is recorded as 7 (29.2) subjects (%); the “Subjects with GPA rated Poor (semisolid or solid stool unable to be suctioned or washed away)” value is 1 (4.2%) subjects (%) and 1 (4.2) subjects (%). In data set [7] (48 g/48 g cohort), the “Subjects with GPA rated Excellent” value was 22 (91.7%) subjects (%) and 22 (91.7) subjects (%); the “Subjects with GPA rated Fair” value is on record as 1 (4.2) subjects (%); the “Subjects with GPA rated Good” value is given as 1 (4.2) subjects (%); the “Subjects with GPA rated Poor (semisolid or solid stool unable to be suctioned or washed away)” value was 0 (0.0) subjects (%). For the same compound, in data set [7] (setting [9]), the “Robustness of bowel cleansing” value is recorded as “more robust bowel cleansing” and the “Time to the first watery bowel movement” value is “shortest time to the first watery bowel movement”. In addition, in data set [7] (Site 01, all dose cohorts), the “Subjects who had a complete colonoscopy” value is given as 30 (96.8%) subjects (%) and the “Subjects with GPA rated poor” value was 1 (3.2%) subjects (%). Besides, the “Subjects who had a complete colonoscopy” value in data set [7] (Site 02, all dose cohorts) is recorded as 39 (95.1%) subjects (%). Besides, in data set [7] (Total of all cohorts), the “Subjects with GPA rated Excellent” value is recorded as 48 (66.7) subjects (%), the “Subjects with GPA rated Fair” value was 8 (11.1) subjects (%), the “Subjects with GPA rated Good” value is recorded as 15 (20.8) subjects (%) and the “Subjects with GPA rated Poor (semisolid or solid stool unable to be suctioned or washed away)” value is on record as 1 (1.4) subjects (%). The “Subjects who had a complete colonoscopy (endoscopist able to reach the cecum)” value in data set [7] (in each dose cohort (24 g/24 g, 36 g/36 g, 48 g/48 g)) is 23 (95.8%) subjects (%). Further, the Failure rating in data set [8] was 20%.
Turning to `OC[C@@H]1OC(O)[C@@H](O)[C@H](O)[C@H]1O` (stereo partly drawn) [anhydrous L-glucose, reference compound], in data set [1] (5 min. delay), the “Observations: clusters or clumping of solid” value is “Material clumped into a hard mass during time”. The “Observations: appearance of final solution” value in data set [1] (No delay) is listed as “stirring. Clear solution results with latent”.

Source of the values: US8618067B2, “L-sugar colon cleansing agent and uses thereof” (Aptalis Pharma US, Inc., priority 2009, dated 2013).
